Reference: PubChem BioAssay (NCI)
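Tested at 5 concentrations; 48 h exposure; 96-well plates; endpoints linearly interpolated, else capped at highest concentration. Abbreviation: GI50, concentration required for 50% inhibition of growth. Definition used: TGI = concentration required for complete inhibition of growth.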

Columns and labels:
Assay in all cases: inhibition of tumour cell growth, NCI panel, 48 h
[1] = system: 786-0 renal
[2] = system: A498 renal
[3] = system: A549 NSCLC
[4] = system: ACHN renal
[5] = system: BT-549 breast
[6] = system: CAKI-1 renal
[7] = system: CCRF-CEM leukemia
[8] = system: COLO 205 colon
[9] = system: DU-145 prostate
[10] = system: EKVX NSCLC
[11] = system: HCC-2998 colon
[12] = system: HCT-116 colon
[13] = system: HCT-15 colon
[14] = system: HL-60(TB) leukemia
[15] = system: HOP-62 NSCLC
[16] = system: HOP-92 NSCLC
[17] = system: HS 578T breast
[18] = system: HT29 colon
[19] = system: IGROV1 ovarian
[20] = system: K-562 leukemia
[21] = system: KM12 colon
[22] = system: LOX IMVI melanoma
[23] = system: M14 melanoma
[24] = system: MALME-3M melanoma
[25] = system: MCF7 breast
[26] = system: MDA-MB-231 breast
[27] = system: MDA-MB-435
[28] = system: MOLT-4 leukemia
[29] = system: NCI-H226 lung
[30] = system: NCI-H23 lung
[31] = system: NCI-H460 lung
[32] = system: NCI-H522 lung
[33] = system: NCI/ADR-RES ovarian
[34] = system: OVCAR-3 ovarian
[35] = system: OVCAR-4 ovarian
[36] = system: OVCAR-5 ovarian
[37] = system: OVCAR-8 ovarian
[38] = system: PC-3 prostate
[39] = system: RPMI-8226 leukemia
[40] = system: RXF 393 renal
[41] = system: SF-268 CNS
[42] = system: SF-295 CNS
[43] = system: SF-539 CNS
[44] = system: SK-MEL-2 melanoma
[45] = system: SK-MEL-28 melanoma
[46] = system: SK-MEL-5 melanoma
[47] = system: SK-OV-3 ovarian
[48] = system: SN12C renal
[49] = system: SNB-19 CNS
[50] = system: SNB-75 CNS
[51] = system: SR leukemia
[52] = system: SW-620 colon
[53] = system: T-47D breast
[54] = system: TK-10 renal
[55] = system: U251 CNS
[56] = system: UACC-257 melanoma
[57] = system: UACC-62 melanoma
[58] = system: UO-31 renal

Which results are given for `C#CCNCCCN1C(=O)c2ccc3c4c(ccc(c24)C1=O)C(=O)N(CCCNCC#C)C3=O`?
GI50 [1]: 778 nM; TGI [1]: 5360 nM; GI50 [2]: 312 nM; TGI [2]: 1410 nM; GI50 [3]: 134 nM; TGI [3]: 393 nM; GI50 [4]: 144 nM; TGI [4]: 1740 nM; GI50 [5]: 1440 nM; TGI [5]: 2890 nM; GI50 [6]: 237 nM; TGI [6]: 955 nM; GI50 [7]: 295 nM; TGI [7]: 2890 nM; GI50 [8]: 91.1 nM; TGI [8]: 238 nM; GI50 [9]: 219 nM; TGI [9]: 600 nM; GI50 [10]: 302 nM; TGI [10]: 1130 nM; GI50 [11]: 242 nM; TGI [11]: 766 nM; GI50 [12]: 157 nM; TGI [12]: 1950 nM; GI50 [13]: 206 nM; TGI [13]: 809 nM; GI50 [14]: 305 nM; TGI [14]: 988 nM; GI50 [15]: 267 nM; TGI [15]: 1560 nM; GI50 [16]: 1790 nM; TGI [16]: 7740 nM; GI50 [17]: 919 nM; TGI [17]: 4760 nM; GI50 [18]: 76.6 nM; TGI [18]: 539 nM; GI50 [19]: 187 nM; TGI [19]: 972 nM; GI50 [20]: 230 nM; TGI [20]: 1630 nM; GI50 [21]: 284 nM; TGI [21]: 1330 nM; GI50 [22]: 205 nM; TGI [22]: 637 nM; GI50 [23]: 317 nM; TGI [23]: 987 nM; GI50 [24]: 158 nM; TGI [24]: 373 nM; GI50 [25]: 132 nM; TGI [25]: 328 nM; GI50 [26]: 670 nM; TGI [26]: 5920 nM; GI50 [27]: 189 nM; TGI [27]: 404 nM; GI50 [28]: 188 nM; TGI [28]: 869 nM; GI50 [29]: 151 nM; TGI [29]: 551 nM; GI50 [30]: 220 nM; TGI [30]: 669 nM; GI50 [31]: 101 nM; TGI [31]: 363 nM; GI50 [32]: 251 nM; TGI [32]: 841 nM; GI50 [33]: 467 nM; TGI [33]: 3810 nM; GI50 [34]: 277 nM; TGI [34]: 957 nM; GI50 [35]: 137 nM; TGI [35]: 279 nM; GI50 [36]: 534 nM; TGI [36]: 2610 nM; GI50 [37]: 180 nM; TGI [37]: 1550 nM; GI50 [38]: 463 nM; TGI [38]: 4410 nM; GI50 [39]: 404 nM; TGI [39]: 4180 nM; GI50 [40]: 228 nM; TGI [40]: 1070 nM; GI50 [41]: 404 nM; TGI [41]: 3050 nM; GI50 [42]: 119 nM; TGI [42]: 514 nM; GI50 [43]: 470 nM; TGI [43]: 1750 nM; GI50 [44]: 244 nM; TGI [44]: 729 nM; GI50 [45]: 613 nM; TGI [45]: 2160 nM; GI50 [46]: 140 nM; TGI [46]: 274 nM; GI50 [47]: 645 nM; TGI [47]: 4320 nM; GI50 [48]: 214 nM; TGI [48]: 949 nM; GI50 [49]: 328 nM; TGI [49]: 1450 nM; GI50 [50]: 451 nM; TGI [50]: 1690 nM; GI50 [51]: 219 nM; TGI [51]: 1040 nM; GI50 [52]: 154 nM; TGI [52]: 992 nM; GI50 [53]: 1020 nM; TGI [53]: 3900 nM; GI50 [54]: 689 nM; TGI [54]: 6880 nM; GI50 [55]: 223 nM; TGI [55]: 1020 nM; GI50 [56]: 181 nM; TGI [56]: 342 nM; GI50 [57]: 384 nM; TGI [57]: 1070 nM; GI50 [58]: 260 nM; TGI [58]: 1380 nM
